Values after ≈ are worked out from the molar mass of the structure shown.
What was measured:
interleukin-1β = test: Inhibition of release of interleukin-1β from human mononuclear cells; format: cell-based; conditions: 10 .parallel.mol/l (so in the source), IL-1β, LPS-stimulated, 20 to 22 hours
Method: Obtaining mononuclear cells from human blood: 10 ml of human blood stabilized with 1 ml of 3.8 percent sodium citrate solution were diluted with 10 ml of PM16 (Serra, Heidelberg), and an underlayer of 15 ml of Lymphoprep (Dr. Molter GmbH, Heidelberg) was introduced. The samples were centrifuged at 400 x g (Minifuge 2 Heraeus, Osterode) at room temperature for 40 minutes. The mononuclear cells were visible as a white ring at the Lymphoprep/plasma boundary. This ring was cautiously removed with a syringe, diluted with the same volume of PM16 and centrifuged at 400 x g for 10 minutes. The precipitate was washed with ^~ 10 ml of RPMI1640 (+300 mg/I L-glutamine, Gibco, Eggenstein). After the cells had been suspended in ^~ 1 ml of RPMI1640 (+300 mg/I L-glutamine, +25 mM HEPES, +100 μg/ml streptomycin, +100 μg/ml penicillin), the cell density was determined with a JT Coulter Counter (Coulter Diagnostics) and adjusted to 5.10^6 /ml. 90% of the resulting cells were lymphocytes and 10% were monocytes.
Inhibition of release of interleukin-1β: 230 μl of mononuclear cells were incubated with 10 μl of test substance (10 μM in dimethyl sulfoxide (DMSO)/water=1/10) and 10 μl of a lipopolysaccharide solution (500 μg dissolved in 1 ml of DMSO and diluted 1/10 with water before starting the test, from Salmonella abortus equi, (Sigma, Deisenhofen) at 37° C., 5% CO2 for 20 to 22 hours. The samples were cooled to 0° C. in an ice bath and centrifuged in a Sigma centrifuge (2 minutes; 2000 revolutions per minute (rpm)). Aliquots of the supernatant were determined using a commercially available ELISA 5(Biermann, Bad Nauheim).
All active substances were tested at a concentration of 10 .parallel.mol/l. IL-1β release was tested in each case.

matrix metalloproteases = test: Inhibition of matrix metalloproteases (MMP from rabbit synoviocytes HIG-82, fluorescent substrate); format: biochemical
Method: After confluent cell growth, the MMP expression was induced in the serum-free 3F12 HAM medium by adding 0.3 μmol/l phorbol 12-myristate 13-acetate. The supernatant was removed after incubating at 37° C. for 20 hours.
Activation of the MMP: The supernatant was activated with trypsin (5 μg/ml). After 15 minutes at 37° C., the activation was stopped by adding 1 mmol/l phenylmethylsulfonyl fluoride (PMSF) and incubating for a further 10 minutes. The total volume of the mixture was 210 μl.
The test substance was added in the stated concentration (see table). […] The reaction was stopped after 30 minutes by adding 10 mmol/l EDTA. The total-volume of the mixture was 320 μl . The parameters measured were the fluorescence intensities at […]. In order to take account of the possible intrinsic fluorescence of the test substances, the fluorescence intensities from parallel measurements without substrate were subtracted from the measurements with substrate. All the steps took place at 20° C.

[1] = system: isolated strips of guinea pig lung; test: Antagonism of PAF-induced contraction of isolated strips of guinea pig lung; conditions: Cavia porcellus; agonist PAF; read-out: Anticontractile effect (lung), concentration range corresponding to the IC50 value
Source text: (§1) The test was based on the same principle as the test indicated in Pharmacological Test 5; however, strips of lung were used in this case.
(§2) The guinea pig was sacrificed under anesthesia with laughing gas. The entire lung tract was cut out starting from the trachea. The lobes of the lungs were cut in circular fashion to produce strips about 3 mm wide. The strips of the upper lobes were divided up in order to obtain a total of six strips of approximately equal size. The strips were suspended in the organ baths under a preload of 4 g. Modified Krebs-Henseleit solutions were used as nutrient solution. When platelet activating factor (PAF) was used as agonist, the composition of this solution corresponded to that for the agonist SP in Pharmacological Test 5; a Krebs-Henseleit solution as in the case of the agonist KCI (Pharm. Test 5) was used for the agonist LTD4. 95% by volume 02, 5% by volume CO2 was bubbled through the bath, and the bath temperature was 37° C. The test is carried out by a therapeutic/cumulative method with dose levels of 1, 3, 6 and 10 μg/ml.
(§3) The test animals, organ bath, vehicle, mode of administration corresponded to that stated for Pharmacological Test 5.

[2] = system: isolated strips of guinea pig lung; test: Antagonism of LTD4-induced contraction of isolated strips of guinea pig lung; conditions: Cavia porcellus; agonist LTD4; read-out: Anticontractile effect (lung), concentration range corresponding to the IC50 value
Source text: as §1, §2, §3

[3] = system: isolated guinea pig trachea; test: Antagonism of substance P-induced contraction of the isolated guinea pig trachea; conditions: Cavia porcellus; agonist substance P; read-out: Anticontractile effect (trachea), concentration range needed to bring about a dilatation corresponding to the ED50 range
Source text: (§4) The compounds according to the invention are used as antagonists of the contraction of various parts of organs, in this case the isolated guinea pig trachea. The agonists used were KCl, PGF2a, calcium ionophore A23187 and substance P:
Antagonism is possible on the one hand by specific receptor antagonists, and on the other hand by inhibition of the downstream signal pathway.
(§5) The guinea pigs were sacrificed by lethal anesthesia with laughing gas. The trachea was dissected out over its entire length and cut into 15 individual cartilage rings. In each case five rings were connected together to form a chain and fixed in an organ bath under a preload of 3 g. After an equilibration period of 45 minutes, a contraction was induced with the agonist. Cumulative addition of the antagonist (test product) took place at the plateau 5 of the maximum. Evaluation took place as % change in strength based on the maximum contraction. The test was carried out at 37° C., and the physiological nutrient solution used was a modified Krebs-Henseleit solution through which 95% by volume 02 and 5% by volume CO2 was bubbled.
(§6) Test animals: Albino guinea pigs (102), weight: 200 to 300 g, male or female
(§7) Composition of the organ bath (nutrient solution):
(§8) Vehicle: Double-distilled water, ethanol or isopropanol; Administration: into the organ bath Number of administrations: cumulative, single doses for SP

[4] = system: isolated guinea pig trachea; test: Antagonism of KCl-induced contraction of the isolated guinea pig trachea; conditions: Cavia porcellus; agonist KCl; read-out: Anticontractile effect (trachea), concentration range needed to bring about a dilatation corresponding to the ED50 range
Source text: as §4
Products with a non-specific effect generally show a spasmolytic effect with respect to all agonists. KCI is representative here of non-specific, receptor-independent contraction because KCl-induced contractions are produced predominantly physically, that is to say by increasing the K+ concentration in the outside medium, and change the resting potential of the cell.
as §5, §6, §7, §8

[5] = system: isolated guinea pig trachea; test: Antagonism of calcium ionophore A23187-induced contraction of the isolated guinea pig trachea; conditions: Cavia porcellus; agonist Ca ionophore A23187; read-out: Anticontractile effect (trachea), concentration range needed to bring about a dilatation corresponding to the ED50 range
Source text: as §4
c) Calcium ionophore A23187 (Calbiochem, Bad Soden) brings about, due to increased uptake of calcium ions, an activation of all calcium-dependent signal cascades in the cell.
as §5, §6, §7, §8

[6] = system: isolated guinea pig trachea; test: Antagonism of PGF2α-induced contraction of the isolated guinea pig trachea; conditions: Cavia porcellus; agonist PGF2α; read-out: Anticontractile effect (trachea), concentration range needed to bring about a dilatation corresponding to the ED50 range
Source text: as §4
Inhibition of contractions induced by this cyclooxygenase product is possible only by competitive antagonism at the receptor or of the downstream signal pathway.
as §5, §6, §7, §8

With `CCOP(=O)(OCC)C(=Cc1ccc(OS(C)(=O)=O)c(OS(C)(=O)=O)c1)C(=O)OC(C)C` [Compound 63] the inhibition at 10 µM (interleukin-1β) was 92%.
With `COc1ccc(C=C(C(=O)OC(C)C)P(=O)(OC)OC)c(OC)c1` [Compound 32] the inhibition at 10 µM (interleukin-1β) was 80%, the “Inhibition of MMP, Inhibition (%)” value (matrix metalloproteases; 10 μM) was 12% and the “Inhibition of MMP, Inhibition (%)” value (matrix metalloproteases; 30 μM) was 22%. The “Inhibition of MMP, Inhibition (%)” value (matrix metalloproteases; 100 μM) was 52%.
In the case of `CCOP(=O)(OCC)C(C#N)=Cc1ccc(OC)c(OCc2ccc(CBr)cc2)c1` [Compound 4], the IC50 [1] is reported as 1 to 3 µg/mL (≈ 2.02 to 6.07 µM) and the IC50 [2] is reported as 3 to 6 µg/mL (≈ 6.07 to 12.1 µM).
In the case of `CCOP(=O)(OCC)C(C#N)=Cc1cc(OC)ccc1OC` [Compound 30], the EC50 [3] is reported as 10 to 30 µg/mL (≈ 30.7 to 92.2 µM), the EC50 [4] is reported as over 10 µg/mL and the IC50 [1] is reported as 1 to 3 µg/mL (≈ 3.07 to 9.22 µM). The EC50 [5] was 3 to 6 µg/mL (≈ 9.22 to 18.4 µM), the EC50 [6] was 6 to 10 µg/mL (≈ 18.4 to 30.7 µM) and the IC50 [2] was about 10 µg/mL (≈ 30.7 µM).
`COc1ccc(CC(C(=O)OC(C)C)P(=O)(OC)OC)cc1OC` (centres unmarked) [Compound 41] was tested, and the inhibition at 10 µM (interleukin-1β) was 11%, the IC50 [1] was 1 to 3 µg/mL (≈ 2.78 to 8.33 µM) and the IC50 [2] was over 10 µg/mL.
With `COc1ccc(C=C(C(=O)OC(C)C)P(=O)(OC)OC)cc1OCc1ccccc1` [Compound 14] the “Inhibition of MMP, Inhibition (%)” value (matrix metalloproteases; 30 μM) was 19% and the “Inhibition of MMP, Inhibition (%)” value (matrix metalloproteases; 100 μM) was 50%.
For `CCOC(=O)C(Cc1ccc(OC(C)=O)c(OC(C)=O)c1)P(=O)(OCC)OCC` (racemic) [Compound 61, Ethyl 3-(3,4-diacetoxyphenyl)-2-(diethoxyphosphinyl) propionate (rac.)], the IC50 [1] was about 3 µg/mL (≈ 6.97 µM) and the IC50 [2] was over 10 µg/mL.
`COc1cc(CC(C(=O)OC(C)C)P(=O)(OC)OC)cc(OC)c1OC` (centres unmarked) [Compound 36] gave an inhibition at 10 µM (interleukin-1β) of 15%.
In the case of `CCOP(=O)(OCC)C(C#N)=Cc1ccc(OC(C)=O)c(OC(C)=O)c1` [Compound 56, 3-(3,4-Diacetoxyphenyl)-2-(diethoxyphosphinyl) acrylonitrile], the IC50 [1] is reported as 1 to 3 µg/mL (≈ 2.62 to 7.87 µM) and the IC50 [2] is reported as 3 to 6 µg/mL (≈ 7.87 to 15.7 µM).
`COc1cc(C=C(C(=O)OC(C)C)P(=O)(OC)OC)cc(OC)c1OC` [Compound 31] was tested, and the inhibition at 10 µM (interleukin-1β) was 97%, the “Inhibition of MMP, Inhibition (%)” value (matrix metalloproteases; 10 μM) was 8% and the “Inhibition of MMP, Inhibition (%)” value (matrix metalloproteases; 30 μM) was 12%. The “Inhibition of MMP, Inhibition (%)” value (matrix metalloproteases; 100 μM) was 35%.
`CCOP(=O)(OCC)C(C#N)Cc1ccc(OCc2ccccc2)c(OCc2ccccc2)c1` (centres unmarked) [Compound 11] showed an EC50 [3] of 10 to 30 µg/mL (≈ 20.9 to 62.6 µM), an EC50 [4] of over 10 µg/mL and an IC50 [1] of 6 to 10 µg/mL (≈ 12.5 to 20.9 µM). The EC50 [6] was over 10 µg/mL.
`CCOP(=O)(OCC)C(C#N)=Cc1ccc(OC)cc1OC` [Compound 44] showed an EC50 [3] of 10 to 30 µg/mL (≈ 30.7 to 92.2 µM), an EC50 [4] of over 10 µg/mL and an EC50 [6] of about 6 µg/mL (≈ 18.4 µM).
In the case of `COc1cc(C=C(C(=O)OC(C)C)P(=O)(OC)OC)cc(OC)c1` [Compound 28], the “Inhibition of MMP, Inhibition (%)” value (matrix metalloproteases; 100 μM) is reported as 9%.
`COc1ccc(C=C(C(=O)OC(C)C)P(=O)(OC)OC)cc1O` [Compound 26, Isopropyl 2-(dimethoxyphosphinyl)-3-(3-hydroxy-4-methoxy-phenyl)propenoate] was tested, and the inhibition at 10 µM (interleukin-1β) was 59%, the “Inhibition of MMP, Inhibition (%)” value (matrix metalloproteases; 10 μM) was 15% and the “Inhibition of MMP, Inhibition (%)” value (matrix metalloproteases; 100 μM) was 51%.
